The values below come from PubChem BioAssay (NCI).

What all share (assay): NCI tumour cell line growth inhibition, 48 h
Experiment [1] has as its system SK-MEL-28 melanoma.
Experiment [2] deals with TK-10 renal.
The subject of experiment [3] is HCT-15 colon.
Experiment [4] deals with HS 578T breast.
Experiment [5] deals with CAKI-1 renal.
The subject of experiment [6] is SK-MEL-2 melanoma.
The test system of experiment [7] is HCT-116 colon.
Experiment [8] concerns HOP-62 NSCLC.
Experiment [9] has as its system SNB-75 CNS.
The test system of experiment [10] is EKVX NSCLC.

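Method: 48-hour compound exposure of cells in 96-well plates, five concentrations, linear interpolation of endpoints. GI50 is the concentration that inhibits growth by half. The concentration for full growth arrest is given as TGI.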

Turning to `CS(=O)(=O)Nc1ccc2c(c1)N(S(C)(=O)=O)CC2CCl` (stereo not given), the TGI in experiment [1], in experiment [2], in experiment [3], in [4], in experiment [5] and in [6] was greater than 100 µM in each case. The TGI in [7], in [8], in experiment [9] and in experiment [10] was greater than 100 µM each time.

On to `COC(=O)Cc1ccc2c(cnn2-c2ccccc2)c1OC`, for which the TGI in [1], in experiment [2], in experiment [3], in experiment [4], in experiment [5] and in [6] was greater than 10 µM each time. The TGI in [7], in experiment [8], in experiment [9] and in experiment [10] was greater than 10 µM each time.

Regarding `Cc1cc(S(=O)(=O)Nc2n[nH]c(-c3ccccn3)n2)c(S)cc1Cl`, the TGI in experiment [1] is greater than 100 µM; in experiment [2] it was 23.9 µM; in [3] it was 20.9 µM; in experiment [4] it was 86.6 µM; in experiment [5] it was 15.7 µM; in [6] it was 63.9 µM. Further, the TGI was determined as 55.1 µM in experiment [7], 59 µM in experiment [8], 85.8 µM in experiment [9] and 92 µM in [10].

With `O=c1nc2c(c(-c3ccc(Br)cc3)[nH]1)COC/C2=C\c1ccc(Br)cc1`, the TGI in experiment [1], in experiment [2], in experiment [3], in experiment [4], in [5] and in experiment [6] was greater than 50 µM in each case. In addition, the TGI in experiment [7], in [8], in experiment [9] and in experiment [10] was greater than 50 µM throughout.

As for `Cc1cc2c(O)c(c1)CN(CC(=O)O)Cc1cc(C)cc(c1O)CN(CC(=O)O)Cc1cc(C)cc(c1O)CN(CC(=O)O)C2`, the TGI in experiment [1], in experiment [2], in experiment [3], in experiment [4], in experiment [5] and in experiment [6] was greater than 100 µM each time. Further, the TGI in experiment [7], in [8], in experiment [9] and in [10] was greater than 100 µM each time.

Regarding `O=C(O)c1cccc2cccc(-c3cccc4cccc(C(=O)O)c34)c12`, the TGI in experiment [1], in [2], in experiment [3], in experiment [4], in experiment [5] and in experiment [6] was greater than 100 µM throughout. The TGI in experiment [7], in experiment [8], in [9] and in experiment [10] was greater than 100 µM each time.

In the case of `OCCOCn1nncc1Cn1ncc2c(SCc3ccccc3)ncnc21`, the TGI in [1], in experiment [2], in [3], in [4], in experiment [5] and in [6] was greater than 100 µM throughout. Also, the TGI in experiment [7], in [8], in experiment [9] and in [10] was greater than 100 µM throughout.

On to `Cc1[nH]c(=O)nc(NCCNCCO)c1C(=O)Nc1cccc2cc3ccccc3cc12`, for which the TGI in experiment [1], in experiment [2], in [3], in experiment [4], in experiment [5] and in experiment [6] was greater than 100 µM throughout. The TGI in experiment [7], in experiment [8], in experiment [9] and in experiment [10] was greater than 100 µM throughout.

In the case of `O=c1[nH]c2nc3ccccc3nc2[nH]c1=O`, the TGI in experiment [1], in [2], in [3], in experiment [4], in experiment [5] and in experiment [6] was greater than 100 µM each time. Also, the TGI in experiment [7], in experiment [8], in experiment [9] and in experiment [10] was greater than 100 µM in each case.

With `CCc1c(CNc2ccc(C(=O)NC(CC(=O)O)C(=O)O)cc2)ccc2nc(N)nc(N)c12` (stereo not given), the GI50 in experiment [1] was greater than 1000 µM; in experiment [2] it was greater than 1000 µM; in experiment [6] it was greater than 1000 µM; in experiment [9], 115 µM; in experiment [10], 558 µM. Besides, the TGI in [1], in experiment [2], in experiment [3], in [4], in [5] and in [6] was greater than 1000 µM each time. The TGI in experiment [7], in [8], in experiment [9] and in experiment [10] was greater than 1000 µM throughout.
